What was measured:
C-RAF = molecular target: T1, C-RAF (Homo sapiens, UniProt P04049); assay: Kinase inhibition assay (Reaction Biology Corporation); assay type: biochemical; conditions: 10 μM ATP, 10-point curve
T1 construct: purchased Reaction Biology Corporation (Malvern, Pa.), contract assay service

[1] = tested on: SK-MEL-24 BRAF V600E melanoma cell line; assay: Cell growth assay; assay type: cell-based; conditions: Homo sapiens, read-out: Ponatinib GI50 (nM), SK-MEL-24, Melanoma, 72 hours
Method: (§1) Cell growth was assessed using the Cell Titer 96 Aqueous One Solution Cell Proliferation Assay (Promega) and absorbance was measured using a Wallac Victor microplate reader (PerkinElmer). To differentiate between a cytostatic and cytotoxic drug effect, the concentration that causes 50% growth inhibition (GI50) was determined by correcting for the cell count at time zero (time of treatment) and plotting data as percent growth relative to vehicle-treated cells using XLfit version 5.2.0 for Microsoft Excel. Data are shown as mean from 3 independent experiments performed in triplicate.

[2] = tested on: HT-29 BRAF V600E colorectal cancer cell line; assay: Cell growth assay; assay type: cell-based; conditions: Homo sapiens, read-out: Ponatinib GI50 (nM), HT-29, Colorectal, 72 hours
Method: as §1

[3] = tested on: SH-4 BRAF V600E melanoma cell line; assay: Cell growth assay; assay type: cell-based; conditions: Homo sapiens, read-out: Ponatinib GI50 (nM), SH-4, Melanoma, 72 hours
Method: as §1

[4] = tested on: A375 BRAF V600E melanoma cell line; assay: Cell growth assay; assay type: cell-based; conditions: Homo sapiens, A-375, read-out: Ponatinib GI50 (nM), 72 hours
Method: as §1

[5] = tested on: MEK or ERK1/2 phosphorylation in HT-29 BRAF V600E mutant colorectal cancer cells; assay: Immunoblot analysis of BRAF signaling; assay type: cell-based; conditions: HT-29 cells, FIG. 4B
Method: (§2) Cells were lysed in SDS lysis buffer (0.06 M Tris-HCL. 1% SDS and 10% glycerol) and protein concentration was determined using a BCA Protein assay (Thermo Scientific). Cellular lysates ([…]) were resolved by electrophoresis and transferred to nitrocellulose membranes using NuPage Novex reagents (Invitrogen). Membranes were immunoblotted with the indicated antibodies (Cell Signaling Technology) and then exposed to Supersignal ELISA femto maximum sensitivity substrate (Thermo Scientific) to generate a chemiluminescent signal.

[6] = tested on: MEK or ERK1/2 phosphorylation in SH-4 BRAF V600E mutant melanoma cancer cells; assay: Immunoblot analysis of BRAF signaling; assay type: cell-based; conditions: SH-4 cells, FIG. 2B
Method: as §2

[7] = tested on: MEK or ERK1/2 phosphorylation in A375 BRAF V600E mutant melanoma cancer cells; assay: Immunoblot analysis of BRAF signaling; assay type: cell-based; conditions: FIG. 1B
Method: as §2

[8] = tested on: CHL-1 BRAF wt melanoma cell line; assay: Cell growth assay (automated cell line screening, Ricerca Biosciences); assay type: cell-based; conditions: Homo sapiens, read-out: Ponatinib GI50 (nM), CHL-1, Melanoma, tested by Ricerca Biosciences
Method: as §1
(§3) Cell growth assays were also performed as part of an automated cell line screening assay (Ricerca Biosciences, LLC, Bothell, Wash., USA). Experimental procedures are similar to those described above.

[9] = tested on: C32 BRAF V600E het melanoma cell line; assay: as above; assay type: cell-based; conditions: Homo sapiens, read-out: Ponatinib GI50 (nM), tested by Ricerca Biosciences
Method: as §1, §3

T1 sequence (P04049 whole entry): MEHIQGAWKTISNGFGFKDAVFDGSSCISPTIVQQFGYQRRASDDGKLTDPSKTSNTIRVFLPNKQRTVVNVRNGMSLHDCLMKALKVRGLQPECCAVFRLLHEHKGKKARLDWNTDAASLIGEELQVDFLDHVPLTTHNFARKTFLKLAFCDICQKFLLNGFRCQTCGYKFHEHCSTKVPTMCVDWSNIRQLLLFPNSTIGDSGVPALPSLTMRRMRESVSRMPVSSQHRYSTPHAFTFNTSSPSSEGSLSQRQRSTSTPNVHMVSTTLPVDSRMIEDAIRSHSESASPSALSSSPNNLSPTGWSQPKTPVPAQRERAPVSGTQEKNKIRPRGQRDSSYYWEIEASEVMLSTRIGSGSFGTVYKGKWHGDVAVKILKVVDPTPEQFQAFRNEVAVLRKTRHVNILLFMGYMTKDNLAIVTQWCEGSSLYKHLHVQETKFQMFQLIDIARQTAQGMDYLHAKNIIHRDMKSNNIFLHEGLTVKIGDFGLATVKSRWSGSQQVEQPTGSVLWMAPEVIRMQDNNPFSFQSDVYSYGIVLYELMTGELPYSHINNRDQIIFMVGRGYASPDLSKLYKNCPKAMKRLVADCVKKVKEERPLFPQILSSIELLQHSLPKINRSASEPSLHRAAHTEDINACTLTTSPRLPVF

With `Cc1ccc(C(=O)Nc2cc(-n3ccnc3)cc(C(F)(F)F)c2)cc1C#Cc1cnc2c(NC(N)=O)cccn12` the IC50 (C-RAF; Table 2) was 12.7 nM.
`CN1CCN(Cc2ccc(NC(=O)c3ccc(F)c(C#Cc4cnc5ccccn45)c3)cc2C(F)(F)F)CC1` was tested, and the IC50 (C-RAF; Table 2) was 51.7 nM.
For `CN1CCN(Cc2ccc(NC(=O)c3cccc(C#Cc4cnc5ccccn45)c3)cc2C(F)(F)F)CC1`, the IC50 (C-RAF; Table 2) was 26.7 nM.
In the case of `CC(C)N1CCN(Cc2ccc(NC(=O)c3cncc(C#Cc4cnc5cnccn45)c3)cc2C(F)(F)F)CC1`, the IC50 (C-RAF; Table 2) is reported as 14.4 nM.
`Cc1ccc(C(=O)Nc2cc(-n3cnc(C#N)c3)cc(C(F)(F)F)c2)cc1C#Cc1cnc2ccccn12` showed an IC50 (C-RAF; Table 2) of 998 nM.
With `Cc1ccc(C(=O)Nc2ccc(CN3CCOCC3)c(C(F)(F)F)c2)cc1C#Cc1cnc2cnccn12` the IC50 (C-RAF; Table 2) was 5.43 nM.
In the case of `CC(=O)Nc1cccn2c(C#Cc3cc(C(=O)Nc4cccc(C(F)(F)F)c4)ccc3C)cnc12`, the IC50 (C-RAF; Table 2) is reported as 7.3 nM.
`Cc1ccc(C(=O)Nc2cc(C(F)(F)F)ccc2NCCN2CCCC2)cc1C#Cc1cnc2ccccn12` showed an IC50 (C-RAF; Table 2) of 24.3 nM.
With `CN1CCN(Cc2ccc(NC(=O)c3cccc(C#Cc4cnc5cnccn45)c3)cc2Cl)CC1` the IC50 (C-RAF; Table 2) was 3.96 nM.
Work on `Cc1ccc(C(=O)Nc2ccc(CC(=N)N)c(C(F)(F)F)c2)cc1C#Cc1cnc2cccnn12` yielded an IC50 (C-RAF; Table 2) of 3.91 nM.
Molecule `Cc1ccc(C(=O)Nc2ccc(C#N)c(C(F)(F)F)c2)cc1C#Cc1cnc2ccccn12` has an IC50 (C-RAF; Table 2) of 57.3 nM.
`CNC(=O)CNc1ccc(NC(=O)c2ccc(C)c(C#Cc3cnc4ccccn34)c2)cc1C(F)(F)F` gave an IC50 (C-RAF; Table 2) of 29.5 nM.
Work on `Cc1cnc(NC(=O)c2ccc(C)c(C#Cc3cnc4c(NC(N)=O)cccn34)c2)s1` yielded an IC50 (C-RAF; Table 2) of 2.49 nM.
Work on `O=C(Nc1cccc(C(F)(F)F)c1)c1cncc(C#Cc2cnc3cccnn23)c1` yielded an IC50 (C-RAF; Table 2) of 2.07 nM.
`Cc1ccc(C(=O)Nc2cc(-n3ccnc3)cc(C(F)(F)F)c2)cc1C#Cc1cnc2c(N)cccn12` was tested, and the IC50 (C-RAF; Table 2) was 51.1 nM.
Molecule `Cc1ccc(C(=O)Nc2cc(-n3ccnc3CN(C)C)cc(C(F)(F)F)c2)cc1C#Cc1cnc2cnccn12` has an IC50 (C-RAF; Table 2) of 9.22 nM.
For `Cc1ccc(C(=O)Nc2ccc(CN3CCCC3)c(C(F)(F)F)c2)cc1C#Cc1cnc2ccccn12`, the IC50 (C-RAF; Table 2) was 60.2 nM.
`Cc1ccc(C(=O)Nc2cc(C(F)(F)F)ccn2)cc1C#Cc1cnc2c(N)cccn12` was tested, and the IC50 (C-RAF; Table 2) was 4.78 nM.
`Cc1ccc(C(=O)Nc2cc(CN3CCOCC3)cc(C(F)(F)F)c2)cc1C#Cc1cnc2ccccn12` gave an IC50 (C-RAF; Table 2) of 83.1 nM.
Work on `CC(=O)Nc1cccn2c(C#Cc3cc(NC(=O)Nc4cc(C(F)(F)F)ccn4)ccc3C)cnc12` yielded an IC50 (C-RAF; Table 2) of 5.09 nM.
`Cc1ccc(C(=O)Nc2cc(C(C)(C)C)on2)cc1C#Cc1cnc2cccnn12` was tested, and the IC50 (C-RAF; Table 2) was 4.27 nM.
For `Cc1ccc(C(=O)Nc2cc(N3CCOCC3)cc(C(F)(F)F)c2)cc1C#Cc1cnc2cccnn12`, the IC50 (C-RAF; Table 2) was 17.2 nM.
Molecule `Cc1ccc(C(=O)Nc2cc(N(C)CCO)cc(C(F)(F)F)c2)cc1C#Cc1cnc2cccnn12` has an IC50 (C-RAF; Table 2) of 14.4 nM.
`Cc1ccc(C(=O)Nc2cccc(C(F)(F)F)c2)cc1C#Cc1cnc2cccnn12` was tested, and the IC50 (C-RAF; Table 2) was 1.45 nM.
With `Cc1ccc(C(=O)Nc2ccc(Cl)cc2)cc1C#Cc1cnc2cccnn12` the IC50 (C-RAF; Table 2) was 10.7 nM.
Molecule `Cc1ccc(C(=O)Nc2cc(-n3cnc(CN(C)C)c3)cc(C(F)(F)F)c2)cc1C#Cc1cnc2cccnn12` has an IC50 (C-RAF; Table 2) of 3.84 nM.
In the case of `Cc1ccc(C(=O)Nc2cc(-c3cncnc3)cc(C(F)(F)F)c2)cc1C#Cc1cnc2cccnn12`, the IC50 (C-RAF; Table 2) is reported as 8.5 nM.
Work on `Cc1ccc(-c2nc3cc(C(F)(F)F)ccc3[nH]2)cc1C#Cc1cnc2cccnn12` yielded an IC50 (C-RAF; Table 2) of 5.8 nM.
Work on `Cc1ccc(C(=O)Nc2cc(-n3cnc(CN4CCCC4)c3)cc(C(F)(F)F)c2)cc1C#Cc1cnc2cccnn12` yielded an IC50 (C-RAF; Table 2) of 9.19 nM.
For `Cc1ccc(C(=O)Nc2ccc(C(F)(F)F)cc2)cc1C#Cc1cnc2cccnn12`, the IC50 (C-RAF; Table 2) was 4.39 nM.
In the case of `Cc1ccc(F)c(NC(=O)c2ccc(C)c(C#Cc3cnc4cccnn34)c2)c1`, the IC50 (C-RAF; Table 2) is reported as 2.76 nM.
`Cc1cc(C#Cc2cnc3cccnn23)cc(C(=O)Nc2cccc(C(F)(F)F)c2)c1` gave an IC50 (C-RAF; Table 2) of 2940 nM.
With `Cc1ccc(NC(=O)c2ccc3ccn(C)c3c2)cc1C#Cc1cnc2cccnn12` the IC50 (C-RAF; Table 2) was 3.12 nM.
`CN1CCN(Cc2ccc(NC(=O)c3cncc(C#Cc4cnc5cccnn45)c3)cc2Cl)CC1` gave an IC50 (C-RAF; Table 2) of 25.6 nM.
For `Cc1ccc(C(=O)Nc2ccc(CN3CCN(C)CC3)c(C(F)(F)F)c2)cc1C#Cc1cnc2cnccn12` [Example 2, 3-(Imidazo[1,2-a]pyrazin-3-ylethynyl)-4-methyl-N-(4-((4-methylpiperazin-1-yl)methyl)-3-(trifluoromethyl)phenyl)benzamide], the IC50 (C-RAF; Table 1) was 2.13 nM.
`Cc1ccc(C(=O)Nc2ccc(CN3CCN(C)CC3)c(C(F)(F)F)c2)cc1C#Cc1cnc2ccccn12` [Example 8, 3-(Imidazo[1,2-a]pyridin-3-ylethynyl)-4-methyl-N-(4-((4-methylpiperazin-1-yl)methyl)-3-(trifluoromethyl)phenyl)benzamide] gave an IC50 (C-RAF; Table 1) of 26 nM.
In the case of `CC(=O)Nc1cccn2c(C#Cc3cc(C(=O)Nc4cc(C(F)(F)F)ccn4)ccc3C)cnc12` [Example 10, 3-((8-Acetamidoimidazo[1,2-a]pyridin-3-yl)ethynyl)-4-methyl-N-(4-(trifluoromethyl)pyridin-2-yl)benzamide], the IC50 (C-RAF; Table 1) is reported as 2.42 nM.
`Cc1ccc(NC(=O)c2ccc(CN3CCN(C)CC3)c(C(F)(F)F)c2)cc1C#Cc1cnc2cccnn12` [Example 15, N-(3-(Imidazo[1,2-b]pyridazin-3-ylethynyl)-4-methylphenyl)-4-((4-methylpiperazin-1-yl)methyl)-3-(trifluoromethyl)benzamide] gave an IC50 (C-RAF; Table 1) of 12.2 nM.
Molecule `Cc1ccc(C(=O)Nc2ccc(CN3CCN(C)CC3)c(C(F)(F)F)c2)cc1C#Cc1cnc2cccnn12` [Ponatinib, 3-(Imidazo[1,2-b]pyridazin-3-ylethynyl)-4-methyl-N-(4-((4-methylpiperazin-1-yl)methyl)-3-(trifluoromethyl)phenyl)benzamide] has a GI50 [1] of 767 nM, a GI50 [2] of 354 nM and a GI50 [3] of 85.6 nM. The GI50 [4] was 372 nM, the “MEK or ERK1/2 phosphorylation” value [5] was “inhibit” and the “MEK or ERK1/2 phosphorylation” value [6] was “inhibit”. For the same molecule, the “MEK or ERK1/2 phosphorylation” value [7] was “inhibit”, the GI50 [8] was 88.5 nM and the GI50 [9] was 107 nM.
